Measurements as given in patent US8067337B2, “Agricultural chemical composition” (priority 2004, dated 2011).

Key:
Type in all cases: in vivo
[1] = tested on: rice seeds (variety of Kinmaze); test: Root length of germinated rice seeds grown on gelled culture medium containing herbicidal compound A1 and a benzoic acid compound; details: herbicidal compound A1 0.15 ppm, benzoic acid compound 2 ppm; after 7 days at 25° C.; percentage relative to untreated area
Protocol: Brine-sorted rice seeds (variety of Kinmaze) were soaked in a 0.5% aqueous solution of sodium hypochlorite for 10 minutes followed by washing in running water for 30 minutes and then kept at 30° C. for 36 hours to cause germination for obtaining germinated seeds. Separately, 0.3 part of gellan gum was dissolved in 100 parts of an aqueous solution of salts for Hoagland's No. 2 culture medium (a product by Sigma Co.). 13 Glass vials of 2 cm internal diameter and 5 cm height were each filled with 15 ml of the solution to which 2-[(4,6-dimethoxypyrimidin-2-yl)hydroxymethyl]-6-methoxymethyl-N-difluoromethane-sulfonylanilide (hereinafter referred to as the herbicidal compound A1) and a variety of the benzoic acid compounds indicated in Table 1 were added to make up concentrations of 0.15 ppm and 2 ppm, respectively, and kept standing to cause gelation of the solutions in the glass vial to prepare a culture medium containing the inventive composition (hereinafter referred to as the inventive culture medium). […]
Germinated seeds were grown in the same manner as in Example 1, except for not adding a benzoic acid compound to the inventive culture medium. After seven days, the lengths of the roots were measured.

Rice (Kinmaze) [2] = test: Rice seedlings at second leaf stage grown in liquid culture medium with herbicidal compound A1 and benzoic acid compounds; details: herbicidal compound A1 0.1 ppm, benzoic acid compound 3 or 1 ppm (Table 2); after 14 days
Protocol: The test culture media were prepared by adding, in advance, to a 25% aqueous solution of salts for Murashige & Skoog culture medium (a product of Wako Pure Chemical Industries, Ltd.), the herbicidal compound A1 and various benzoic acid compounds indicated in Table 2 to make up a concentration of 0.1 ppm and the concentrations shown in Table 2, respectively. Fifty ml each of the resulting test culture media were dispensed into a 50 ml Erlenmeyer flask to prepare various liquid culture media. Similarly, the same amount of the 25% aqueous solution of salts for Murashige & Skoog culture medium was added to the above-mentioned flask to prepare a liquid culture medium (hereinafter referred to as the untreated culture medium). Rice (Kinmaze) grown to the second leaf stage in culture soil for raising seedlings was soaked in these culture media, with the root cut off except for a 2 cm-long part thereof, and was grown in a growth chamber under the conditions of 25° C. with the lighting period of 16 hours, and the dark period of 8 hours to measure the plant length of rice, the length of the root and the living masses of the above-ground part and the root after 14 days or, namely, after lapse of 14 cycles.
Rice was grown in the same manner as in Example 14, except for not adding a benzoic acid compound. After 14 days, the plant length of rice, the length of the root, and the living masses of the above-ground part and the root were measured.

Rice (Kinmaze) [3] = test: Rice seedlings at second leaf stage grown in liquid culture medium with various herbicidal compounds and p-(t-butyl)benzoic acid; details: herbicidal compound at ppm of Table 3, with or without p-(t-butyl)benzoic acid 3 ppm; after 14 days
Protocol: The test media were prepared by adding, in advance, to a 25% aqueous solution of salts for Murashige & Skoog culture medium (a product by Wako Pure Chemical Industries, Ltd.), various herbicidal compounds indicated in Table 3 and p-(t-butyl)benzoic acid to make up concentrations indicated in Table 3 and a concentration of 3 ppm, respectively. Fifty ml each of the resulting test culture media were dispensed into a 50 ml Erlenmeyer flask to prepare various liquid culture media. Similarly, a liquid culture medium with a herbicidal compound and a benzoic acid compound not added was prepared. Rice (Kinmaze) grown to the second leaf stage in culture soil for raising seedlings was soaked in these culture media, with the root cut off except for a 2 cm-long part thereof, and was grown in a growth chamber (manufactured by SANYO Electric Co., Ltd.) under the conditions of 25° C. with the lighting period of 16 hours, and the dark period of 8 hours to measure the plant length of rice, the length of the root, and the living masses of the above-ground part and the root after 14 days.
Rice was grown in the same manner as in each of Examples 21 to 25, except for not adding a benzoic acid compound to the culture medium. After 14 days, the plant length of rice, the length of the root, and the living masses of the above-ground part and the root were measured.

| SMILES | Living mass Above-ground part (Rice (Kinmaze) [3]) | Living mass Root (Rice (Kinmaze) [3]) | also measured |
| --- | --- | --- | --- |
| COCc1cccc(C(O)c2nc(OC)cc(OC)n2)c1NS(=O)(=O)C(F)F (stereo not shown) [Comparative Example 1, 2-[(4,6-dimethoxypyrimidin-2-yl)hydroxymethyl]-6-methoxymethyl-N-difluoromethane-sulfonylanilide] |  |  | Length of root (%) [1]: 21% |
| COCc1cccc(C(O)c2nc(OC)cc(OC)n2)c1NS(=O)(=O)C(F)F (stereo not shown) [Comparative Example 2, 2-[(4,6-dimethoxypyrimidin-2-yl)hydroxymethyl]-6-methoxymethyl-N-difluoromethane-sulfonylanilide] |  |  | Length of root (Rice (Kinmaze) [2]): 2.1 cm; Living mass Above-ground part (Rice (Kinmaze) [2]): 0.16 g; Living mass Root (Rice (Kinmaze) [2]): 0.07 g; Plant length (Rice (Kinmaze) [2]): 15.6 cm |
| COC(=O)c1ccccc1CS(=O)(=O)NC(=O)Nc1nc(OC)cc(OC)n1 [compound 3, Bensulfuron-methyl] | 0.11 g | 0.05 g |  |
| CCOC(=O)c1cnn(C)c1S(=O)(=O)NC(=O)Nc1nc(OC)cc(OC)n1 [compound 4, Pyrazosulfuron-ethyl] | 0.07 g | 0.04 g | Length of root (Rice (Kinmaze) [3]): 2.0 cm; Plant length (Rice (Kinmaze) [3]): 11.7 cm |
| CCCCOCN(C(=O)CCl)c1c(CC)cccc1CC [compound 5, Butachlor] | 0.14 g | 0.09 g |  |
| CCN(CC)C(=O)SCc1ccc(Cl)cc1 [compound 6, Thiobencarb] | 0.23 g | 0.18 g |  |
| CCN(C(=O)n1nnn(-c2ccccc2Cl)c1=O)C1CCCCC1 [compound 7, Fentrazamide] | 0.08 g | 0.05 g | Length of root (Rice (Kinmaze) [3]): 2.2 cm; Plant length (Rice (Kinmaze) [3]): 11.6 cm |
